Data from patent US5994334A, “Androgen synthesis inhibitors” (priority 1997, dated 1999).
Read-outs that look alike come from different tables or passages of the source.

What was measured:
[1] = molecular target: T1, Human Prostatic 5α-Reductase (Homo sapiens, UniProt P31213); assay: Inhibition of human prostatic 5α-reductase (prostatic microsomes, [3H]testosterone); conditions: for inhibition at 0.1 µM: read-out: % Inhibition of 5α-reductase, [I] 100 nM; for inhibition at 0.4 µM: read-out: % Inhibition of 5α-reductase, [I] 400 nM; for inhibition at 0.01 µM: read-out: % Inhibition of 5α-reductase, [I] 10 nM
T1 sequence (P31213 1-254): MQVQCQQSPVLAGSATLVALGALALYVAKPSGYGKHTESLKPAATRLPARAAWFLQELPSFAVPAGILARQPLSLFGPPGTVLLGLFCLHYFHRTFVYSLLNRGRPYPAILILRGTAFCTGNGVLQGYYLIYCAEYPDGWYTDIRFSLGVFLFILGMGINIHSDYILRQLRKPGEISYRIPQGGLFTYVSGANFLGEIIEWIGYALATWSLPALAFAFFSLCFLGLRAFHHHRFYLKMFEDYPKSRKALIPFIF

[2] = molecular target: T2, Human Testicular 17α-Hydroxylase (Homo sapiens, UniProt P05093); assay: Inhibition of human testicular 17α-hydroxylase (pregnenolone substrate, testicular microsomes); assay type: biochemical; conditions: for inhibition at 0.1 µM: read-out: % Inhibition 17α-hydroxylase, [I] = 100 nM; for inhibition at 0.4 µM: read-out: % Inhibition 17α-hydroxylase, [I] = 400 nM
T2 construct: incubating human testicular microsomes; from tissue; host or cells: human testis, microsomes
T2 sequence (P05093 1-508): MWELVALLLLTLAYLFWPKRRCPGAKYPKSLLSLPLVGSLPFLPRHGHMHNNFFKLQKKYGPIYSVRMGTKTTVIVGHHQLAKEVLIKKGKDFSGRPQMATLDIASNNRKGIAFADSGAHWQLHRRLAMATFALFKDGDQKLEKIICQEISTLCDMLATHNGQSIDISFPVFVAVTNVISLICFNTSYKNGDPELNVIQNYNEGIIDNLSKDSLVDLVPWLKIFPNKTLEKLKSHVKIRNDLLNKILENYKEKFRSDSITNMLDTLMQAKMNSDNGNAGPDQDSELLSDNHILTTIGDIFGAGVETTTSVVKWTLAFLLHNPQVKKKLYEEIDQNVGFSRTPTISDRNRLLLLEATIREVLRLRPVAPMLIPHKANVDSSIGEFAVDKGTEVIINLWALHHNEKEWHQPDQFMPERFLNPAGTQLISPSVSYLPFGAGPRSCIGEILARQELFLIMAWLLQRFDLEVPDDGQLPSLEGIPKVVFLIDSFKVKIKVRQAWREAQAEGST
Description: (§1) The conversion of radiolabeled pregnenolone to 17α-hydroxypregnenolone and DHEA by 17α-hydroxylase/C17,20 -lyase was measured by incubating human testicular microsomes with different concentration of test compounds. Reverse phase HPLC was used to separate and accurately quantify the amount of substrate and metabolites. The 17α-hydroxylase and C17,20 -lyase activities were calculated separately. The activity of 17α-hydroxylase was calculated from the conversion of pregnenolone to 17α-hydroxypregnenolone and DHEA and the activity of C17,20 -lyase was based on the conversion of pregnenolone to DHEA. Although 17α-hydroxypregnenolone is the substrate converted to DHEA by C17,20 -lyase, it has been reported that this 17α-hydroxy intermediate is not released from the enzyme binding site during conversion (Nakajin et al., 1981a,b). Also, there are species differences in substrate requirements. Pregnenolone is the natural substrate rather than progesterone for human testicular 17α-hydroxylase and C17,20 -lyase. Therefore, pregnenolone was used as substrate for measuring the activity of this enzyme complex.

[3] = molecular target: T3, Human Testicular C17,20-lyase (Homo sapiens, UniProt P05093); assay: Inhibition of human testicular C17,20-lyase (pregnenolone substrate, testicular microsomes); assay type: biochemical; conditions: for inhibition at 0.1 µM: read-out: % Inhibition C17,20-lyase, [I] = 100 nM; for inhibition at 0.4 µM: read-out: % Inhibition C17,20-lyase, [I] = 400 nM
T3 construct: incubating human testicular microsomes; from tissue; host or cells: human testis, microsomes
T3 sequence (P05093 1-508): T2 sequence (P05093 1-508)
Description: as §1

[4] = molecular target: T4, human 17α-hydroxylase/C17,20-lyase (Homo sapiens, UniProt P05093); assay: Inhibition of human testicular 17α-hydroxylase/C17,20-lyase (enzyme complex as a whole); assay type: biochemical; conditions: NI = no inhibition
T4 construct: incubating human testicular microsomes; from tissue; host or cells: human testis, microsomes
T4 sequence (P05093 1-508): T2 sequence (P05093 1-508)
Description: as §1

[5] = Table 1, NI = no inhibition, read-out: IC50 17α-OHase
[6] = Table 1, NI = no inhibition, CI = complete inhibition, read-out: IC50 C17,20 lyase

C[C@]12CC[C@H]3[C@@H](CC[C@]45CC(=O)CC[C@]34[C@H]5O)[C@@H]1CC[C@@H]2O [Compound L-19, 17β,19(S)-dihydroxy 5,19β-cycloandrost-3-one]
inhibition at 0.1 µM [1]: 8.7%
inhibition at 0.4 µM [1]: 14.8%

C[C@]12CC[C@H]3[C@@H](CC[C@]45CC(=O)C=C[C@]34C5)[C@@H]1CCC2=O [Compound L-15, 5,19β-cycloandrost-1-ene-3,17-dione]
inhibition at 0.1 µM ([2]; 100 nM, first figure of pair): 7.25%
inhibition at 0.1 µM ([3]; 100 nM, second figure of pair): 28.8%
inhibition at 0.1 µM [1]: 23.3%
inhibition at 0.4 µM [1]: 60.9%

C[C@H](C#N)[C@H]1CC[C@H]2[C@@H]3CCC4=CC(=O)CC[C@]4(C)[C@H]3CC[C@]12C [Compound I-32]
inhibition at 0.01 µM [1]: 21%
inhibition at 0.1 µM [1]: 79.2%

C[C@@H](N)[C@H]1CC[C@H]2[C@@H]3CC=C4C[C@@H](O)CC[C@]4(C)[C@H]3CC[C@]12C [Compound I-9]
IC50 [2, 5]: 89800 nM
IC50 [3, 6]: 43900 nM
inhibition of 17α-hydroxylase/C17,20-lyase (in words) [4]: poor inhibition

C[C@]12CC[C@H]3[C@@H](CC=C4C[C@@H](O)CC[C@@]43C)[C@@H]1CC[C@@H]2c1c[nH]c(-c2ccccc2)n1 [Compound L-7]
inhibition at 0.1 µM ([2]; 100 nM, first figure of pair): 10.3%
inhibition at 0.4 µM ([2]; 400 nM, first figure of pair): 20.9%
inhibition at 0.1 µM ([3]; 100 nM, second figure of pair): 9.5%
inhibition at 0.4 µM ([3]; 400 nM, second figure of pair): 33.8%

CC(=O)[C@@]12O[C@@H]1C[C@H]1[C@@H]3CC=C4C[C@@H](O)CC[C@]4(C)[C@H]3CC[C@@]12C [Compound I-17]
IC50 [2, 5]: 440 nM
IC50 [3, 6]: 680 nM
inhibition of 17α-hydroxylase/C17,20-lyase (in words) [4]: decreased potency

CCOC(=O)C1=CC[C@H]2[C@@H]3CC=C4C[C@@H](O)CC[C@]4(C)[C@H]3CC[C@]12C [Compound I-53]
IC50 [2, 5]: 3040 nM
IC50 [3, 6]: 2450 nM

CC1N[C@]12CC[C@H]1[C@@H]3CC=C4C[C@@H](O)CC[C@]4(C)[C@H]3CC[C@@]12C (stereo partly drawn) [Compound L-22]
inhibition at 0.1 µM [2]: 0%
inhibition at 0.4 µM [2]: 0%
inhibition at 0.1 µM [3]: 3.33%
inhibition at 0.4 µM [3]: 9.99%

C[C@]12CCC(=O)C=C1CC[C@@H]1[C@@H]2CC[C@@]2(C)[C@H]1CC[C@]2(O)c1c[nH]cn1 [Compound I-44]
IC50 [2, 5]: 1200 nM
IC50 ([2]; first figure of pair, read-out: IC50 17α-hydroxylase): 1200 nM
IC50 [3, 6]: 1000 nM
IC50 ([3]; second figure of pair, read-out: IC50 C17,20-lyase): 1000 nM

C=C1CC2C3CCC(OC(C)=O)C3(C)CCC2C2(C)CCC(=O)CC12 [Compound L-14, 17β-Acetoxy-6-methylene-5α-androst-3-one]
inhibition at 0.1 µM [1]: 5.77%
inhibition at 0.4 µM [1]: 11.4%

CC(=O)O[C@H]1CC[C@@]2(C)C(=CC[C@@H]3[C@@H]2CC[C@]2(C)C(C(C)=O)=CC[C@@H]32)C1 [Compound I-37]
IC50 ([2]; read-out: IC50 17α-OHase): 1890 nM
IC50 ([3]; read-out: IC50 C17,20 lyase): 1710 nM
inhibition of 17α-hydroxylase/C17,20-lyase (in words) [4]: less activity than the 3-hydroxy compound

CC(=O)[C@@]12O[C@@H]1C[C@H]1[C@@H]3CCC4=CC(=O)CC[C@]4(C)[C@H]3CC[C@@]12C [Compound I-18]
IC50 [2, 5]: 480 nM
IC50 [3, 6]: 800 nM
inhibition at 0.01 µM [1]: 15.1%
inhibition at 0.1 µM [1]: 76.2%

CC(=NN)[C@H]1CC[C@H]2[C@@H]3CC=C4C[C@@H](O)CC[C@]4(C)[C@H]3CC[C@]12C [Compound I-12]
inhibition of 17α-hydroxylase/C17,20-lyase (in words) [4]: poor inhibition

CC(C#N)=C1CC[C@H]2[C@@H]3CCC4=CC(=O)CC[C@]4(C)[C@H]3CC[C@]12C [Compound I-26]
inhibition of 17α-hydroxylase/C17,20-lyase (in words) [4]: did not contribute to inhibition
inhibition at 0.01 µM [1]: 5.21%
inhibition at 0.1 µM [1]: 71.8%
